Assay results published in patent US20250206730A1 (AUTOTELIC BIO INC., priority 2022, published 2025).

molecular target: T1, ALK5 kinase (Homo sapiens, UniProt P36897); test: LanthaScreen Eu Kinase Binding Assay; conditions: Kinase Tracer 178, Eu-anti-GST Antibody, read-out: IC50 Enzyme
T1 sequence (P36897 34-503): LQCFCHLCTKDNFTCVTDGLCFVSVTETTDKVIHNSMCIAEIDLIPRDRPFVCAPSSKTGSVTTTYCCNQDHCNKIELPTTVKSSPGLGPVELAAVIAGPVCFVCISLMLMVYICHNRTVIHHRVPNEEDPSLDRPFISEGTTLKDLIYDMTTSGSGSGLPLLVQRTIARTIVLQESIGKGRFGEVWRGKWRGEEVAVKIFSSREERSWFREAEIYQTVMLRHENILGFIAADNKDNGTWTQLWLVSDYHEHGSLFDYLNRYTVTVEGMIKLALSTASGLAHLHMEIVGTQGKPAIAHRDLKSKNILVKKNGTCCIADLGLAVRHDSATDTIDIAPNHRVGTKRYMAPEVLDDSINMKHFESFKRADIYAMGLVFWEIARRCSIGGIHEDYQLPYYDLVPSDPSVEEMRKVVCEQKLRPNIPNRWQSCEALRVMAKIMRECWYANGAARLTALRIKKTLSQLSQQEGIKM
Procedure, shortened: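 Compound (1% DMSO final) preincubated 30 min at RT with GST-tagged ALK5, then Eu-anti-GST antibody and Kinase Tracer 178 added for 60 min at RT. TR-FRET read at 340 nm excitation; 665/615 nm emission ratio falls as compound binding rises.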

SMILES | IC50 [nM]
Cc1cccc(-c2nc(C)sc2Oc2ccnc(Nc3cccc(S(N)(=O)=O)c3)c2)n1 [A-303, 3-((4-((2-Methyl-4-(6-methylpyridin-2-yl)thiazol-5-yl)oxy)pyridin-2-yl)amino)benzenesulfonamide] | < 100
Cc1cccc(-c2nc(C)sc2Oc2ccnc(Nc3cccc(CC#N)c3)c2)n1 [A-304] | < 100
Cc1cccc(-c2nc(C)sc2Oc2ccnc(Nc3cccc(C(C)(C)C(=O)O)c3)c2)n1 [A-309, 2-Methyl-2-(3-((4-((2-methyl-4-(6-methylpyridin-2-yl)thiazol-5-yl)oxy)pyridin-2-yl)amino)phenyl)propanoic acid] | < 100
CNc1nc(-c2ccccc2)c(Oc2ccnc(Nc3ccc(C(N)=O)cc3)c2)s1 [A-310, 4-((4-((2-(Methylamino)-4-phenylthiazol-5-yl)oxy)pyridin-2-yl)amino)benzamide] | < 100

tested on: TGF-β signaling; test: Assay for evaluating cellular inhibition of TGF-β signaling, HEK293 (SBE reporter) luciferase reporter; format: cell-based; conditions: Homo sapiens; HEK293 (SBE reporter) stable cells, 0.5% FBS, 2 h pre-treatment, TGF-β1 2 ng/mL 24 h; read-out: IC50 HEK 293 Cell
Procedure: [Example 2] Assay for Evaluating Cellular Inhibition of TGF-β Signaling
4T1 (SBE-luc2P) transient pool that have SBE-luc2P (hygro) expression plasmid or HEK293 (SBE reporter) stable cells (BPS bioscience) were seeded at 6×10^3 cells/well or 2.5×10^4 cells/well in 96-well plate, respectively. 4T1 (SBE-luc2P) transient pool were pre-treated with novel compound synthesized in Example 1 above in 0.2% FBS at approximately 60% confluence at 37° C. in 5% CO2. Also, HEK293 (SBE reporter) stable cells were pre-treated with each test compounds of formula in 0.5% FBS at approximately 80% confluence at 37° C. in 5% CO2. After 2 hours, cells were treated with TGF-β1 (2 ng/mL) for 24 h at 37° C. in 5% CO2. Cell lysates were prepared using Luciferase Assay (Promega) according to the manufacturer's instruction, and luminescence was measured by a plate reader, Biotek Synergy H1 (Vermont, USA).

SMILES | IC50 [nM]
CCc1nc(-c2ccccc2)c(Oc2ccnc(Nc3ccc(C(=O)NC(C)C)cn3)c2)s1 [A-196, 6-((4-((2-Ethyl-4-phenylthiazol-5-yl)oxy)pyridin-2-yl)amino)-N-isopropylnicotinamide] | < 100
CCc1nc(-c2ccccc2)c(Oc2ccnc(Nc3ccc(C(=O)NCCN4CCCC4)cn3)c2)s1 [A-199, 6-((4-((2-Ethyl-4-phenylthiazol-5-yl)oxy)pyridin-2-yl)amino)-N-(2-(pyrrolidin-1-yl)ethyl)nicotinamide] | < 100
CCc1nc(-c2ccccc2)c(Oc2ccnc(Nc3ccc(C(=O)NCCN4CCN(C)CC4)cn3)c2)s1 [A-201, 6-((4-((2-Ethyl-4-phenylthiazol-5-yl)oxy)pyridin-2-yl)amino)-N-(2-(4-methylpiperazin-1-yl)ethyl)nicotinamide] | < 100
CCc1nc(-c2ccccc2)c(Oc2ccnc(Nc3ccc(C(=O)NCCN4CCN(C(C)C)CC4)cn3)c2)s1 [A-202, 6-((4-((2-Ethyl-4-phenylthiazol-5-yl)oxy)pyridin-2-yl)amino)-N-(2-(4-isopropylpiperazin-1-yl)ethyl)nicotinamide] | < 100
CCc1nc(-c2ccccc2)c(Oc2ccnc(Nc3ccc(C(=O)NCCN4CCN(CC)CC4)cn3)c2)s1 [A-203, 6-((4-((2-Ethyl-4-phenylthiazol-5-yl)oxy)pyridin-2-yl)amino)-N-(2-(4-ethylpiperazin-1-yl)ethyl)nicotinamide] | < 100
CCc1nc(-c2ccccc2)c(Oc2ccnc(Nc3ccc(N4CCC(N)C4)cn3)c2)s1 (stereo not drawn) [A-204, 5-(3-Aminopyrrolidin-1-yl)-N-(4-((2-ethyl-4-phenylthiazol-5-yl)oxy)pyridin-2-yl)pyridin-2-amine] | < 100
CCc1nc(-c2ccccc2)c(Oc2ccnc(Nc3ccc(NCCN4CCN(C(C)C)CC4)cc3)c2)s1 [A-205, N^1-(4-((2-Ethyl-4-phenylthiazol-5-yl)oxy)pyridin-2-yl)-N^4-(2-(4-isopropylpiperazin-1-yl)ethyl)benzene-1,4-diamine] | < 100
CCc1nc(-c2ccccc2)c(Oc2ccnc(Nc3ccc(NCCN4CCN(C)CC4)cc3)c2)s1 [A-206, N^1-(4-((2-Ethyl-4-phenylthiazol-5-yl)oxy)pyridin-2-yl)-N^4-(2-(4-methylpiperazin-1-yl)ethyl)benzene-1,4-diamine] | < 100
CCc1nc(-c2ccccc2)c(Oc2ccnc(Nc3ccc(NCCN4CCN(CC)CC4)cc3)c2)s1 [A-207, N^1-(4-((2-Ethyl-4-phenylthiazol-5-yl)oxy)pyridin-2-yl)-N^4-(2-(4-ethylpiperazin-1-yl)ethyl)benzene-1,4-diamine] | < 100
CCc1nc(-c2ccccc2)c(Oc2ccnc(Nc3ccc(NCCN4CCCC4)cc3)c2)s1 [A-208, N^1-(4-((2-Ethyl-4-phenylthiazol-5-yl)oxy)pyridin-2-yl)-N^4-(2-(pyrrolidin-1-yl)ethyl)benzene-1,4-diamine] | < 100
CCc1nc(-c2ccccc2)c(Oc2ccnc(Nc3ccc(NCCN4CCN(C)CC4)cn3)c2)s1 [A-209, N^2-(4-((2-Ethyl-4-phenylthiazol-5-yl)oxy)pyridin-2-yl)-N^5-(2-(4-methylpiperazin-1-yl)ethyl)pyridine-2,5-diamine] | < 100
CCc1nc(-c2ccccc2)c(Oc2ccnc(Nc3ccc(NCCN4CCCC4)cn3)c2)s1 [A-210, N^2-(4-((2-Ethyl-4-phenylthiazol-5-yl)oxy)pyridin-2-yl)-N^5-(2-(pyrrolidin-1-yl)ethyl)pyridine-2,5-diamine] | < 100
CCc1nc(-c2ccccc2)c(Oc2ccnc(Nc3ccc(NCCN4CCN(CC)CC4)cn3)c2)s1 [A-211, N^2-(4-((2-Ethyl-4-phenylthiazol-5-yl)oxy)pyridin-2-yl)-N^5-(2-(4-ethylpiperazin-1-yl)ethyl)pyridine-2,5-diamine] | < 100
CCc1nc(-c2ccccc2)c(Oc2ccnc(Nc3ccc(NCCN4CCN(C(C)C)CC4)cn3)c2)s1 [A-212, N^2-(4-((2-Ethyl-4-phenylthiazol-5-yl)oxy)pyridin-2-yl)-N^5-(2-(4-isopropylpiperazin-1-yl)ethyl)pyridine-2,5-diamine] | < 100
CCc1nc(-c2ccccc2)c(Oc2ccnc(Nc3ccc(-c4cn[nH]c4)cn3)c2)s1 [A-213, N-(5-(1H-Pyrazol-4-yl)pyridin-2-yl)-4-((2-ethyl-4-phenylthiazol-5-yl)oxy)pyridin-2-amine] | < 100
CCc1nc(-c2ccccc2)c(Oc2ccnc(Nc3ccc(N4CCC(N)C4)cc3)c2)s1 (stereo not drawn) [A-214, N-(4-(3-Aminopyrrolidin-1-yl)phenyl)-4-((2-ethyl-4-phenylthiazol-5-yl)oxy)pyridin-2-amine] | < 100
CCc1nc(-c2ccccc2)c(Oc2ccnc(Nc3ccc(N4CCC(NC)C4)cc3)c2)s1 (stereo not drawn) [A-215, 4-((2-Ethyl-4-phenylthiazol-5-yl)oxy)-N-(4-(3-(methylamino)pyrrolidin-1-yl)phenyl)pyridin-2-amine] | < 100
CCc1nc(-c2ccccc2)c(Oc2ccnc(Nc3cccc(C(N)=O)n3)n2)s1 [A-241, 6-((4-((2-Ethyl-4-phenylthiazol-5-yl)oxy)pyrimidin-2-yl)amino)picolinamide] | < 100
CCc1nc(-c2ccccc2)c(Oc2ccnc(Nc3cc(C(N)=O)ccn3)n2)s1 [A-242, 2-((4-((2-Ethyl-4-phenylthiazol-5-yl)oxy)pyrimidin-2-yl)amino)isonicotinamide] | > 100
CCc1nc(-c2ccccc2)c(Oc2ccnc(Nc3cccc(C(N)=O)c3)n2)s1 [A-243, 3-((4-((2-Ethyl-4-phenylthiazol-5-yl)oxy)pyrimidin-2-yl)amino)benzamide] | < 100
CCc1nc(-c2ccccc2)c(Oc2ccnc(Nc3ccc(C(=O)O)cn3)n2)s1 [A-244, 6-((4-((2-Ethyl-4-phenylthiazol-5-yl)oxy)pyrimidin-2-yl)amino)nicotinic acid] | > 100
CCc1nc(-c2ccccc2)c(Oc2ccnc(Nc3ccc(C(N)=O)cn3)n2)s1 [A-245, 6-((4-((2-Ethyl-4-phenylthiazol-5-yl)oxy)pyrimidin-2-yl)amino)nicotinamide] | > 100
CCc1nc(-c2ccccc2)c(Oc2ccnc(Nc3ccc(C(=O)O)cc3)n2)s1 [A-246, 4-((4-((2-Ethyl-4-phenylthiazol-5-yl)oxy)pyrimidin-2-yl)amino)benzoic acid] | < 100
CCc1nc(-c2cccc(C)n2)c(Oc2ccnc(Nc3cccc(NS(C)(=O)=O)c3)c2)s1 [A-272, N-(3-((4-((2-ethyl-4-(6-methylpyridin-2-yl)thiazol-5-yl)oxy)pyridin-2-yl)amino)phenyl)methanesulfonamide] | < 100
CCc1nc(-c2cccc(C)n2)c(Oc2ccnc(Nc3ccc(C(=O)Nc4cc(F)cc(C(=O)OCCN(C)C)c4)cn3)c2)s1 [A-273, 2-(Dimethylamino)ethyl 3-(6-((4-((2-ethyl-4-(6-methylpyridin-2-yl)thiazol-5-yl)oxy)pyridin-2-yl)amino)nicotinamido)-5-fluorobenzoate] | > 100

tested on: TGF-β signaling; test: Assay for evaluating cellular inhibition of TGF-β signaling, 4T1 (SBE-luc2P) luciferase reporter; format: cell-based; conditions: Mus musculus, 4T1, 4T1 (SBE-luc2P) transient pool, 0.2% FBS, 2 h pre-treatment, TGF-β1 2 ng/mL 24 h; read-out: IC50 4T1 Cell
Procedure, shortened: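 4T1 cells transiently carrying SBE-luc2P (6×10^3/well, 0.2% FBS, ~60% confluence) or HEK293 SBE-reporter stable cells (2.5×10^4/well, 0.5% FBS, ~80% confluence) pre-treated with compound for 2 h. TGF-β1 (2 ng/mL) then added for 24 h at 37 °C; luciferase luminescence read from lysates.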

SMILES | IC50 [nM]
Cc1cccc(-c2nc(C)sc2Oc2ccnc(Nc3cccc(S(N)(=O)=O)c3)c2)n1 [A-303, 3-((4-((2-Methyl-4-(6-methylpyridin-2-yl)thiazol-5-yl)oxy)pyridin-2-yl)amino)benzenesulfonamide] | < 100
Cc1cccc(-c2nc(C)sc2Oc2ccnc(Nc3cccc(CC#N)c3)c2)n1 [A-304] | < 100
Cc1cccc(-c2nc(C)sc2Oc2ccnc(Nc3cccc(C(C)(C)C(=O)O)c3)c2)n1 [A-309, 2-Methyl-2-(3-((4-((2-methyl-4-(6-methylpyridin-2-yl)thiazol-5-yl)oxy)pyridin-2-yl)amino)phenyl)propanoic acid] | < 100
CNc1nc(-c2ccccc2)c(Oc2ccnc(Nc3ccc(C(N)=O)cc3)c2)s1 [A-310, 4-((4-((2-(Methylamino)-4-phenylthiazol-5-yl)oxy)pyridin-2-yl)amino)benzamide] | > 100
